Patent publication US8648058B2, “Diazeniumdiolate cyclopentyl derivatives” (Merck Sharp & Dohme Corp., priority 2010, dated 2014)

System: Male beagle dogs
Experiment: canine telemetry protocol for blood pressure reduction efficacy
Format: in vivo
Settings: 3 mg/kg dose, oral gavage, telemetered male beagle dogs; for ΔPP (mm Hg) 1-6 h / ΔPP (mm Hg) 6-12 h / ΔPP (mm Hg) 12-18 h: change from baseline in pulse pressure; for ΔSBP (mm Hg) 1-6 h / ΔSBP (mm Hg) 6-12 h / ΔSBP (mm Hg) 12-18 h: change from baseline in systolic blood pressure
Procedure: Compounds of the invention were evaluated for blood pressure reduction efficacy using the following canine telemetry protocol described below.
Male beagle dogs (approximately 1-3 years old) with a body weight of between 10 and 16 kg were surgically implanted with DSI radiotelemetry devices (model: TL11M2-D70-PCT). Briefly, under an inhalant anesthesia, isoflurane/oxygen mixture (1-3.5%/to effect), the body of the telemetry device was positioned and secured intra-abdominally. Subsequently, the arterial catheter of the telemetry device was passed subcutaneously to the inguinal area and introduced into the femoral artery and advanced to the level of the descending aorta. The catheter was secured with 2-0 silk ligatures. The muscle and underlying fascia was closed over the catheter using absorbable suture and the skin was closed using non-absorbable suture. The animals were allowed a minimum recovery period of 2 weeks between surgery and the evaluation of test compounds.
Compound evaluation consisted of a 3 day paradigm at a 3 mg/kg dose. On the first day, no compounds were administered during a 24 hour period of baseline data collection. Blood pressure and heart rate data were collected continuously for one minute periods at 10 minute intervals. On the days of compound administration half the animals received test article with the other half receiving the vehicle used for compound formulation. All test materials were administered by oral gavage in a volume of 1 mL/kg. Data are expressed either as raw values (mm Hg or beats per minute) or as the change from baseline (average value for about 12 hours in low activity period prior to dosing). Change is SBP (systolic blood pressure) and PP (pulse pressure) over time is shown below: […]

SMILES | ΔPP (mm Hg) 1-6 h [mm Hg] | ΔPP (mm Hg) 6-12 h [mm Hg] | ΔPP (mm Hg) 12-18 h [mm Hg] | ΔSBP (mm Hg) 1-6 h [mm Hg] | ΔSBP (mm Hg) 6-12 h [mm Hg] | ΔSBP (mm Hg) 12-18 h [mm Hg]
CCN(/[N+]([O-])=N/O[C@@H]1CC[C@H](C(=O)O)C1)C(C)(C)C [Example 18, (1S,3R)-3-({[(1Z)-2-tert-butyl-2-ethyl-1-oxido-1λ^5-diazan-1-ylidene]amino}oxy)cyclopentanecarboxylic acid] | −14 | −10 | −6 | −18 | −10 | −4
CCN(/[N+]([O-])=N/O[C@@H]1CC[C@@H](C(=O)O)C1)C(C)(C)C [Example 1, (1R,3R)-3-({[(1Z)-2-tert-butyl-2-ethyl-1-oxido-1λ^5-diazan-1-ylidene]amino}oxy)cyclopentanecarboxylic acid] | −7 | −7 | −5 | −12 | −9 | −7
CCCN(/[N+]([O-])=N/O[C@@H]1CC[C@@H](C(=O)O)C1)C(C)(C)C [Example 7, (1R,3R)-3-({[(1Z)-2-tert-butyl-2-propyl-1-oxido-1λ^5-diazan-1-ylidene]amino}oxy)cyclopentanecarboxylic acid] | −4 | −9 | −8 | −9 | −11 | −10
